One compound from ChEMBL document CHEMBL2321873, “1-(4-Phenylpiperazin-1-yl)-2-(1H-pyrazol-1-yl)ethanones as novel CCR1 antagonists” (Bioorg Med Chem Lett, 2013) can be followed below.

Series [1] addresses Atypical chemokine receptor 3 (Homo sapiens) (UniProt P25106). The series is described as follows: Antagonist activity at CXCR7 (unknown origin) assessed as inhibition of chemotaxis at 10 uM.
The target in series [2] is T1, C-X-C chemokine receptor type 3 (Homo sapiens) (UniProt P49682).
T1 sequence (whole entry): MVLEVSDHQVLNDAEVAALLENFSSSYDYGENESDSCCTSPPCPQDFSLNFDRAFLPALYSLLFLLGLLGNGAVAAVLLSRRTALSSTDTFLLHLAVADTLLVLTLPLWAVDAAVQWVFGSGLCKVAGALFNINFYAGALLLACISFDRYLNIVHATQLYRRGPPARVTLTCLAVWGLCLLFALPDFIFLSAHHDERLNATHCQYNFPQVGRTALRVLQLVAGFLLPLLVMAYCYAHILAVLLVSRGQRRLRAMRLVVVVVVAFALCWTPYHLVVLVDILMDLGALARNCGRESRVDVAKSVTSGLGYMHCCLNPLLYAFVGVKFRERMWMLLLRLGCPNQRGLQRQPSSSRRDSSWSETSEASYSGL
The series is described as follows: Binding affinity to CXCR3 (unknown origin) at 10 uM by radioligand displacement assay. For orientation: In a radioligand displacement assay an active substance lowers the binding of a labelled ligand.

Series [3] has as its target T2, C-X-C chemokine receptor type 5 (Homo sapiens) (UniProt P32302).
T2 sequence (whole entry): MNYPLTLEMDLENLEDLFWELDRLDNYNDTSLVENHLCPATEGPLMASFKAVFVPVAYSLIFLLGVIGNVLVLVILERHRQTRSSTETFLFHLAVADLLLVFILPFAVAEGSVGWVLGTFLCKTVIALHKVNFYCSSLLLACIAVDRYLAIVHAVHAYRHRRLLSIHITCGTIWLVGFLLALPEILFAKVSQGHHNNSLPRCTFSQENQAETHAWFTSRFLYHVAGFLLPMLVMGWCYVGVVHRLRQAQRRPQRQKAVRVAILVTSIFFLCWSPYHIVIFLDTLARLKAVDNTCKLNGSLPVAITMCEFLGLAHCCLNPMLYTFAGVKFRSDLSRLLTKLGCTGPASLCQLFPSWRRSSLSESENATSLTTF
The series is described as follows: Antagonist activity at CXCR5 (unknown origin) assessed as inhibition of calcium flux at 10 uM. In kind it is functional. A general note: Calcium assays in cells follow changes in intracellular calcium, usually with a dye or a luminescent sensor.

A short description of series [4]: Half life in Sprague-Dawley rat at 1 mg/kg, iv. In kind it is ADME, organism-based. Also noted: dose 1 mg/kg, route intravenous. As to conditions: in vivo.
Series [5] addresses C-C chemokine receptor type 5 (Homo sapiens) (UniProt P51681). Kind of series: Binding affinity to CCR5 (unknown origin) at 10 uM by radioligand displacement assay.
Series [6] concerns the target T3, C-X-C chemokine receptor type 1 (Homo sapiens) (UniProt P25024).
T3 sequence (whole entry): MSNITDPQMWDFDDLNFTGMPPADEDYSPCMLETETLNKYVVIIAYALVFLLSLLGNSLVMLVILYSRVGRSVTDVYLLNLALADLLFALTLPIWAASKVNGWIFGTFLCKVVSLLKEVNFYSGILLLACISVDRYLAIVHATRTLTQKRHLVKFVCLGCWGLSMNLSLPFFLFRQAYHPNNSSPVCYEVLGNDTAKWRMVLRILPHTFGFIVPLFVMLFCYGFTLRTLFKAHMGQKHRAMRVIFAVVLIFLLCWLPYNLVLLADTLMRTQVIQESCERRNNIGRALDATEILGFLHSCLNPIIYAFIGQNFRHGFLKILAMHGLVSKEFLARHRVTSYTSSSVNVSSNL
Kind of series: Antagonist activity at CXCR1 (unknown origin) assessed as inhibition of chemotaxis at 10 uM.

For series [7], the target named is C-X-C chemokine receptor type 6 (Homo sapiens) (UniProt O00574). Kind of series: Antagonist activity at CXCR6 (unknown origin) assessed as inhibition of calcium flux at 10 uM. It is filed as functional.
The target in another series is Cytochrome P450 2C19 (Homo sapiens, UniProt P33261). The series is described as follows: Inhibition of CYP2C19 (unknown origin). In kind it is ADME.
In series [8] the target is T3, C-X-C chemokine receptor type 1 (Homo sapiens). The series is described as follows: Antagonist activity at CXCR1 (unknown origin) assessed as inhibition of calcium flux at 10 uM. In kind it is functional.
Series [9] has as its target T4, C-C chemokine receptor type 10 (Homo sapiens) (UniProt P46092).
T4 sequence (whole entry): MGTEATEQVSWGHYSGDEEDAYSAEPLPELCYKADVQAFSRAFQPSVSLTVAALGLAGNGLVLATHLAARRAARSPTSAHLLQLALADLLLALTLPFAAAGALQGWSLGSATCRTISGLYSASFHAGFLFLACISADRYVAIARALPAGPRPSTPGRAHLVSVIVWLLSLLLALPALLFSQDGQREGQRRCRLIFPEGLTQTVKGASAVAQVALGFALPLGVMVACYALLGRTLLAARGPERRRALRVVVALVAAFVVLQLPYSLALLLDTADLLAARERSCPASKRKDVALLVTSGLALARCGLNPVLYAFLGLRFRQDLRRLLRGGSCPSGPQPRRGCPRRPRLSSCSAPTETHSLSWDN
The series is described as follows: Binding affinity to CCR10 (unknown origin) at 10 uM by radioligand displacement assay.

The test system of another series is Rattus norvegicus. The series is described as follows: Toxicity in Sprague-Dawley rat assessed as effect on complete blood cell count at 70 to 360 mg/kg, po after 7 days. In kind it is organism-based. Also noted: dose 70-360 mg/kg, route oral. To be noted: in vivo, 168 h.
A short description of series [10]: Oral bioavailability in Beagle dog at 5 mg/kg. It is filed as ADME, organism-based, Canis lupus familiaris. As to conditions: in vivo.
Series [11] deals with T5, C-C chemokine receptor type 9 (Homo sapiens) (UniProt P51686).
T5 sequence (whole entry): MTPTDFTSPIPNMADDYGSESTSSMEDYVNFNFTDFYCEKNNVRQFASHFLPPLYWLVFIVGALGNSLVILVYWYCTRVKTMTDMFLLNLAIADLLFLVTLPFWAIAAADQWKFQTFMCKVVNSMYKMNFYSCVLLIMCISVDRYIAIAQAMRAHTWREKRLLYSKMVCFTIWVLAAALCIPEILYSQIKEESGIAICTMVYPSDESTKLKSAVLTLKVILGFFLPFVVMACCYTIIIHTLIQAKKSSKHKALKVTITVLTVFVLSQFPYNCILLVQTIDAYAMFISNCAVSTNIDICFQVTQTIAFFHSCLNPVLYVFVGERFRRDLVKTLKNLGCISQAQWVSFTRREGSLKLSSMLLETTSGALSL
The series is described as follows: Binding affinity to CCR9 (unknown origin) at 10 uM by radioligand displacement assay.

For series [12], the target named is Atypical chemokine receptor 3 (Homo sapiens) (UniProt P25106). The series is described as follows: Antagonist activity at CXCR7 (unknown origin) assessed as inhibition of calcium flux at 10 uM. In kind it is functional.
Series [13] deals with T6, C-C chemokine receptor type 6 (Homo sapiens) (UniProt P51684).
T6 sequence (whole entry): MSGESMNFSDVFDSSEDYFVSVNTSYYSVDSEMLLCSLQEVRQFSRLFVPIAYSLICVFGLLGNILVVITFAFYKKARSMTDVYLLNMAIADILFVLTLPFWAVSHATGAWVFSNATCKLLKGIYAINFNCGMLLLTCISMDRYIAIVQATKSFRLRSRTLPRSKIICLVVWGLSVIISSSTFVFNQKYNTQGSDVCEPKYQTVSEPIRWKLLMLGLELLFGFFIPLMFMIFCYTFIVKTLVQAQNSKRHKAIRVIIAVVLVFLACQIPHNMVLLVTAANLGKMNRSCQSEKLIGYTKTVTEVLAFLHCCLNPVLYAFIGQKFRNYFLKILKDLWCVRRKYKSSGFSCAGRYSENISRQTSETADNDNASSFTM
The series is described as follows: Antagonist activity at CCR6 (unknown origin) assessed as inhibition of calcium flux at 10 uM. It is filed as functional.

SMILES strings stand for the structures. Active and inactive are the calls of the source. No cut-off for these calls is given here.

Atypical chemokine receptor 3 (Homo sapiens), sequence (P25106 whole entry): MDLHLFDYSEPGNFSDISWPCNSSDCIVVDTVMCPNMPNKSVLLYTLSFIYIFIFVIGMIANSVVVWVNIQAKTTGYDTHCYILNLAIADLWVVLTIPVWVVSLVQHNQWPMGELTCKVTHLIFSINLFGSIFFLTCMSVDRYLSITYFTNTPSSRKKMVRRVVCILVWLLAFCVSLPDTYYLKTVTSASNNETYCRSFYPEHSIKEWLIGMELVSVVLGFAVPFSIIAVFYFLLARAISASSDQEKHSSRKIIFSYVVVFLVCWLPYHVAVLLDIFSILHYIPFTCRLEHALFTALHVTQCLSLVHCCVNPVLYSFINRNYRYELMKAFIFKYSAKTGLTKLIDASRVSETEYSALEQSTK
C-X-C chemokine receptor type 6 (Homo sapiens), sequence (O00574 whole entry, looked up): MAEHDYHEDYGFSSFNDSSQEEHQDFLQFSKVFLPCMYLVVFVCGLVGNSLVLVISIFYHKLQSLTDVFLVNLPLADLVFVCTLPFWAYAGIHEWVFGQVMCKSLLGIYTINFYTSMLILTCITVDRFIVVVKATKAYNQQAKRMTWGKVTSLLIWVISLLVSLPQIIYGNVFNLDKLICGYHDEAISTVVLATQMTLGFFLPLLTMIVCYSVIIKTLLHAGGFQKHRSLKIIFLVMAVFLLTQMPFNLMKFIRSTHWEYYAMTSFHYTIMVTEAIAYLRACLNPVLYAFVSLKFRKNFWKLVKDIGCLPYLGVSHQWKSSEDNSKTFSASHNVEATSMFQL
C-C chemokine receptor type 5 (Homo sapiens), sequence (P51681 whole entry, looked up): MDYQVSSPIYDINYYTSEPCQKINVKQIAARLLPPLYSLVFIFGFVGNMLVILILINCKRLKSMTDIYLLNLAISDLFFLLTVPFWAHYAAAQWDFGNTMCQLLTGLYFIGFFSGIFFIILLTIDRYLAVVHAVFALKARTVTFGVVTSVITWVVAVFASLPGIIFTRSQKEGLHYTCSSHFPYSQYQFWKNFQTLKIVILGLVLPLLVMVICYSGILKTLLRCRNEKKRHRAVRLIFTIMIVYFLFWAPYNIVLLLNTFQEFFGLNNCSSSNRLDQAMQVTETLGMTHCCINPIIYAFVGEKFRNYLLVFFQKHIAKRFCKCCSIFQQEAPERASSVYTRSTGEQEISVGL
Cytochrome P450 2C19, sequence (P33261 whole entry): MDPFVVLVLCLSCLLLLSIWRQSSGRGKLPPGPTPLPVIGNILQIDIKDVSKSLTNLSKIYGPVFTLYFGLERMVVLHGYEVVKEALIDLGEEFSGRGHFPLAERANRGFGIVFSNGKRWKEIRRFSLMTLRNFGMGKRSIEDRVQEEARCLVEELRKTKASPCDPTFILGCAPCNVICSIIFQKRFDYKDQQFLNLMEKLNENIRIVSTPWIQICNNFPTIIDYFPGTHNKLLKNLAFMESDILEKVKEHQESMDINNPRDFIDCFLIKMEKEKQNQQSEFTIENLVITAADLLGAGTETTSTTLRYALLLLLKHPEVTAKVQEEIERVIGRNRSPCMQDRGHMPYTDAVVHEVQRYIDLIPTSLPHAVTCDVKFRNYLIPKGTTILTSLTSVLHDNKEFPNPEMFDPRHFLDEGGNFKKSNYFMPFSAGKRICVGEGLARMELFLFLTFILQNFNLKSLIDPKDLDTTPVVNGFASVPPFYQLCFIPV

Regarding `COc1cc(N2CCN(C(=O)Cn3nc(C(F)(F)F)c(Cl)c3C)CC2)ccc1Cl`, the inhibition result in series [1], in series [3], in series [6], in [7], in [8] and in series [12] was “inactive” each time. Also, in series [13], the inhibition result is “inactive”. In addition, the outcome in series [2], in [5], in [9] and in [11] was inactive. The half-life (usually the time in which the quantity being followed falls by half) in series [4] was 2.2 h. Further, at Cytochrome P450 2C19, the IC50 – broadly, the midpoint of a concentration-inhibition curve – is 6 µM. In addition, in the series on Rattus norvegicus, the Activity result is “Non-toxic”. In series [10], the bioavailability (usually dose-corrected exposure relative to a reference, in per cent) stood at 20%.
